Assay results as given in ChEMBL document CHEMBL1201862, “PubChem BioAssay data set” (2004).
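Following 48 hours of exposure in 96-well plates, responses at five concentrations were used to interpolate endpoints linearly. GI50 is the concentration that inhibits growth by half.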 The source made the active and inactive calls. No stated cut-off is given here; in the data, active = GI50 up to about 1.1 µM and inactive = higher.

Tests used:
Assay in all cases: NCI-60 cell line screen, 48 h
[1] = system: NCI-H23
[2] = system: IGROV-1
[3] = system: HL-60
[4] = system: HCT-15
[5] = system: SK-MEL-2
[6] = system: NCI-H460
[7] = system: U-251
[8] = system: CCRF-CEM
[9] = system: EKVX
[10] = system: SNB-75
[11] = system: NCI-H522
[12] = system: UACC-62
[13] = system: DMS-273
[14] = system: M19-MEL
[15] = system: SN12C
[16] = system: CAKI-1
[17] = system: KM-20L2
[18] = system: HOP-92
[19] = system: SW-620
[20] = system: SNB-19

Question: For `O=S(=O)(CF)OCCCCOS(=O)(=O)CF`, which GI50 [1] is on record?
Answer: The GI50 was 97.9 µM (inactive).

Question: What about the GI50 [2] of the same compound?
Answer: Its GI50 is > 100 µM (inactive).

Question: And the GI50 [3]?
Answer: The GI50 was 13.2 µM (inactive).

Question: And the GI50 [4]?
Answer: The GI50 was over 100 µM.

Question: And the GI50 [5]?
Answer: The GI50 was > 100 µM (inactive).

Question: And the GI50 [6]?
Answer: The GI50 was 23.8 µM (inactive).

Question: And the GI50 [7]?
Answer: The GI50 was > 100 µM (inactive).

Question: And the GI50 [8]?
Answer: The GI50 was 32.2 µM (inactive).

Question: And the GI50 [9]?
Answer: Its GI50 is > 100 µM (inactive).

Question: What about the GI50 [10] of the same compound?
Answer: The GI50 was 27.7 µM (inactive).

Question: And the GI50 [11]?
Answer: The GI50 was > 100 µM (inactive).

Question: And the GI50 [12]?
Answer: The GI50 was > 100 µM (inactive).

Question: What about the GI50 [13] of the same compound?
Answer: The GI50 was 75.9 µM (inactive).

Question: And the GI50 [14]?
Answer: The GI50 was > 100 µM (inactive).

Question: And the GI50 [15]?
Answer: The GI50 was > 100 µM (inactive).

Question: And the GI50 [16]?
Answer: The GI50 was > 100 µM (inactive).

Question: And the GI50 [17]?
Answer: Its GI50 is > 100 µM (inactive).

Question: And the GI50 [18]?
Answer: Its GI50 is 0.701 µM (active).

Question: What about the GI50 [19] of the same compound?
Answer: Its GI50 is > 100 µM (inactive).

Question: And the GI50 [20]?
Answer: Its GI50 is 95.3 µM (inactive).
